Reference: patent US20140024123A1, “Aqueous Solution Containing Partial Ras Polypeptide and Method for Screening Inhibitor of Ras Function” (priority 2011, published 2014)

Legend:
[1] = tested on: culture cell lines having a mutation in an active form of any one of H-Ras, N-Ras, and K-Ras; test: Cytological activity verification test: anchorage-independent cell growth (soft agar colony formation); format: cell-based; settings: 0.6% agarose, 37° C., 2 weeks, colonies with diameter of 50 μm or more, relative to compound-free control (100%); FIG. 5
Protocol: The number of appeared colonies each having a size with a diameter of 50 μm or more was measured. For a medium in which each of the culture cell lines was suspended in a system free of each of the compounds, the number of colonies was similarly measured and used as a control (100%). Each of the compounds was evaluated for its inhibitory activity on colony formation (inhibitory activity on anchorage-independent cell growth) by calculating inhibition ratio for colony formation of the compound administration group relative to the control.

[2] = target: T1, human H-Ras polypeptide (amino acid residues 1 to 166) binding to human c-Raf-1 (amino acid residues 51 to 130) (Homo sapiens, UniProt P01112); test: Biochemical activity verification test: inhibition of Ras-Raf binding (GST-Raf pull-down of GTPγ[35S]-labeled Ras, scintillation counting); settings: compound at various concentrations in 10% DMSO; FIG. 4
T1 construct: a human H-Ras polypeptide (amino acid residues 1 to 166) was used as Ras; GST (N, cleaved yes); made in house; host or cells: Escherichia coli
T1 sequence (P01112 1-166): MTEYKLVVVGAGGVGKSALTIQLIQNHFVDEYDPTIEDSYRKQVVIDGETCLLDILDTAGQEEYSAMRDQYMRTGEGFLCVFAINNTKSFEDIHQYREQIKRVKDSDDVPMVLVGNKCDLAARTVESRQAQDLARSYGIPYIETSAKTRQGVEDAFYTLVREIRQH
Source text: In this experimental example, a human H-Ras polypeptide (amino acid residues 1 to 166) was used as Ras, and a GTP analog (GTPγS (Roche Diagnostics)) was used as GTP. Further, human c-Raf-1 (amino acid residues 51 to 130) was used as Raf, a target protein of Ras.
A fused protein of Raf, a target protein of Ras, and glutathione S-transferase (GST) was expressed in Escherichia coli using a vector for GST-fused protein expression (pGEX-6P-1 vector (GE Healthcare)). The expressed GST-Raf-fused protein was immobilized onto an affinity carrier for purification (glutathione Sepharose 4B: resin (GE Healthcare)).
GTPγ[^35S] (Perkin Elmer), one of the GTP analogs, was added to Ras from which a GST tag was cleaved with a protease for GST-fused protein cleavage (PreScission protease (GE Healthcare)) to produce radiolabeled Ras.
The resin in the reaction liquid was washed, and then a complex of the GST-Raf-fused protein and the radiolabeled Ras was eluted by adding glutathione. A radioactivity of the eluate was subjected to scintillation counting, to thereby measure a binding activity of Ras to Raf, and inhibitory activities on Ras-Raf binding with various compounds were evaluated.

Compound	inhibitory activity on colony formation (anchorage-independent cell growth) [1]	inhibitory activity on Ras-Raf binding [2]
O=[N+]([O-])c1ccc(NNC(=S)Nc2ccc(F)cc2)c([N+](=O)[O-])c1 [Compound (III)]	found to have a colony formation inhibition effect on each cell	found to interact with Ras
Cc1ccc(NC(=S)NNc2c([N+](=O)[O-])cc(C(F)(F)F)cc2[N+](=O)[O-])cc1Cl [Compound (II)]	found to have a colony formation inhibition effect on each cell	found to interact with Ras
O=[N+]([O-])c1cc(C(F)(F)F)cc([N+](=O)[O-])c1NNC(=S)Nc1ccc(F)cc1 [Compound (IV)]	found to have a colony formation inhibition effect on each cell	found to interact with Ras
